Reference: patent US20090263492A1, “Diagnostic Methods and Genetic Markers for Alzheimer Disease” (priority 2006, published 2009)
“Also recorded” adds a separate entry of the source.

Legend:
Type in all cases: cell-based, human
Mgat3 transcription = experiment: qPCR of Mgat3 transcription in PBMC's from AD patients cultured with Aβ and test agent
Protocol: (§1) RNA Isolation and qPCR. RNA was isolated as above from PBMC's (10 million) of each subject, which were cultured overnight with or without Aβ (2 μg/ml); and cDNA was synthesized using the iSCRIPT cDNA Synthesis Kit. The expression levels of the genes of interest were tested by qPCR on a real-time PCR detector and normalized to the levels of the housekeeping gene 36B4 with the following primers: […]
(§2) SYBR Green reactions were carried out with the IQ SYBR Green mix. Reactions were run on a Continuous Fluorescence detector and analyzed. The relative quantities of the gene tested per sample were calculated against 36B4 using the ΔΔC(T) formula as previously described. The results are expressed as log [MGAT (or TLR) RNA (with Aβ)/MGAT (or TLR) RNA (without Aβ)] for each specimen. For evaluation of curcumins or curcumin analogs the above assay was used. Curcumins (0.1 uM) were added to PBMC's from AD patients cultured overnight with ±Aβ as above. After 2 hours of incubation with the curcumin or analog, RNA was isolated and cDNA was synthesized as above. The expression levels of Mgat3 or TLR transcription was quantified and normalized to the levels of housekeeping genes and compared to cells treated with curcumin or analogs with or without Aβ vs. untreated cells. The amount of Mgat3 (or TLR) RNA with Aβ and test agent/Mgat3 (or TLR) RNA withal alone)] for each cell preparation in the presence of test agent was determined. The ratio was used to determine the potency of the agent tested. Potent compounds had elevated ratios (>1.5) and were used to rank the relative activity of each test agent (Table 2).
Curcumins. […] Crude natural product derived materials (i.e., curcuminoids) enhance phagocytosis of Aβ by macrophages from AD patients in approximately 50% of the cases examined. […] The material was purified to near homogeneity and identified by LCMS as bisdesmethoxycurcumin on the basis of its molecular ion and fragmentation pattern. To verify the biological activity of this minor constituent, bisdesmethoxycurcumin was chemically synthesized and tested in the phagocytosis and transcription assays described above (see Example 4). Compared with curcumin, both the bisdesmethoxycurcumin material isolated by chromatography and the chemically synthesized bisdesmethoxycurcumin material optimally stimulated phagocytosis at 0.1 μM. To determine whether functional improvement would be accompanied by biochemical changes, we tested transcriptional up-regulation of MGA T3 and TLR's in PBMC's from AD patients and controls in the presence of Aβ with bisdesmethoxycurcumin (0.1 μM) in comparison to Aβ alone. […] Thus, curcumins (0.1 uM) were added to PBMC's from AD patients cultured overnight with Aβ as above. After 2 hours of incubation, RNA was isolated and cDNA was synthesized. The expression levels of Mgat3 or TLR transcription was quantified and normalized to the levels of housekeeping genes and compared to cells treated with curcumin or analogs without Aβ. The amount of Mgat3 (or TLR) RNA with test agent and Aβ)/Mgat3 (or TLR) RNA (with Aβ alone)] for each cell preparation in the presence of test agent was determined. The ratio was used to determine the potency of the agent tested. Potent compounds had elevated ratios (>1.5) and were used to rank the relative activity (Table 2).
Mgat3 and TLR transcription in cells from AD and control patients. We tested by qPCR Mgat3 and/0or TLR transcription in cells from AD patients and compared the results to those obtained from age-matched controls (Table 2). As discussed above, activation or up-regulation of macrophage Mgat3 or TLR's results in many functional outcomes, including the enhancement of […] and removal of Aβ, increased apoptosis, secretion of inflammatory cytokines, and other anti-AD antimicrobial activities. […] Thus, the ratio of Mgat3 or TLR transcription upon Aβ stimulation of AD versus control PBMCs provides an indicator and sensitive method to test the in vitro efficacy of drug candidates. […]

[1] = system: Toll-like receptor (TLR) RNA's (TLR1-10); experiment: qPCR of TLR transcription in PBMC's from AD patients cultured with Aβ and test agent; details: for up-regulation of TLR1-10 RNA: PBMCs from one AD patient (patient D, FIG. 1), Aβ plus agent overnight
Protocol: 10 million PBMC's each of four AD patients (A, B, C, D) were treated overnight with no addition, Aβ (A, B, C, D; black bars) or with Aβ and bisdemethoxycurcumin (D, striped bar). Control subjects's (M, N, O) PBMC's were treated with no addition or Aβ (open bars). RNA was extracted and tested by qPCR, and the TLR ratio was determined as described in the Methods. The significance of differences between patients and controls (by Mann-Whitney test) are: TLR1 0.05; TLR2 0.05; TLR3 0.05; TLR4 0.08; TLR5 0.05; TLR6 0.077; TLR7 0.08; TLR8 0.05; TLR9 0.08; TLR10 0.05. The graphs show changes in receptors on 2-fold (log 2) scale.
as §1
as §2, with “Curcumins (0.1 uM) were added to PBMC's from AD patients cultured overnight with ±Aβ as above. After 2 hours of incubation with the curcumin or analog, RNA was isolated and cDNA was synthesized as above.” left out, “The ratio was used to determine the potency of the agent tested. Potent compounds had elevated ratios (>1.5) and were used to rank the relative activity of each test agent (Table 2).” left out
Curcumins. […] The expression levels of Mgat3 or TLR transcription was quantified and normalized to the levels of housekeeping genes and compared to cells treated with curcumin or analogs without Aβ. […]

[2] = system: TLR2, TLR3 and TLR4 on monocytes; experiment: Flow cytometry of TLR expression on monocytes of PBMCs from an AD patient
[3] = system: macrophages of AD patients; experiment: Phagocytosis of FITC-amyloid-beta (1-42) by macrophages of AD patients
Text: Peripheral blood mononuclear cells (PBMC's) and macrophages. AD patients were recruited at the time of enrollment in a double-blind study of curcumin Complex 3 in progress at UCLA. The diagnostic criteria for AD satisfied the National Institute of Neurological and Communicative Disorders and the AD and Related Disorders Association criteria for probable Alzheimer's disease. Normal age-matched control subjects were recruited. PBMC's were isolated by the Ficoll Hypaque gradient technique from venous blood. To prepare macrophage slide cultures, 50,000 PBMC's were cultured in each well of an 8-chamber polystyrene vessel glass slide in Iscove's medium with 10% autologous serum until differentiated into adherent macrophages (7-14 days).
Phagocytosis assay and confocal microscopy. Macrophages were exposed to FITC-amyloid-beta (1-42) (2 μg/ml) overnight, fixed with 4% paraformaldehyde, permeabilized with 0.1% Triton X-100, blocked with 1% BSA in PBS and stained with Rab 5 or EEA1 antibodies by indirect immunofluorescence; lysosomes were stained intravitally by the Lyso-Tracker probe; macrophages were stained using anti-CD68; neurons were stained using anti-NeuN. The preparations were examined using fluorescence and confocal microscopy.
Ability of monocytes to clear Aβ in the brain. Co-culture of freshly isolated monocytes with sections of AD frontal lobe to test the ability of monocytes to clear Aβ in the brain was done. One third of control monocytes became saturated with Aβ in 2 days and 100% in 4 days. […] Apoptosis of macrophages treated with Aβ was done with the SR-VAD-FMK polycaspase assay. Differentiated macrophages were treated with curcuminoids or analogs in the medium overnight and were then exposed to FITC-Aβ (1-42) to 2.5 μg/ml, incubated for 24 or 48 h and examined by fluorescence or confocal microscopy.
Curcuminoids reverse defective phagocytosis of amyloid-beta by macrophages of individual AD patients. […] Macrophages were visualized using anti-CD68 or fluorescent phalloidin with a fluorescence microscope.

[4] = 0.1 μM, PBMC's from AD patients

O=C(C=Cc1ccc(O)cc1)C=C(O)C=Cc1ccc(O)cc1 [Compound 5a, 5-Hydroxy-1,7-bis-(4-hydroxy-phenyl)-hepta-1,4,6-trien-3-one]
transcription of MGAT3 with Aβ and agent in comparison to Aβ alone (Mgat3 transcription; [4]): up-regulated in all four patients examined
fold induction at 0.1 µM (Mgat3 transcription; Homo sapiens, curcumins 0.1 uM, PBMC's from AD patients cultured overnight with Aβ, 2 hours incubation, qPCR, read-out: Relative Activity: relative ratio of Mgat3 transcription in AD/Mgat3 transcription in control cells): 1.5 to 2
relative Mgat3 ratios (Mgat3 transcription; repeat assays): 3-5 fold
transcription of TLRs with Aβ and agent in comparison to Aβ alone [1, 4]: up-regulated in all four patients examined
up-regulation of TLR1-10 RNA ([1]; listed as Bisdemethoxycurcumin): all 10 TLRs were up-regulated
up-regulation of TLR1-10 RNA ([1]; listed as bisdemethoxycurcumin): up-regulation
expression of TLR2, TLR3 and TLR4 on monocytes [2]: increased expression
effect on Aβ phagocytosis/uptake by AD macrophages ([3]; in vitro treatment during Aβ phagocytosis, fluorescence/confocal microscopy, listed as bisdemethoxycurcumin): enhanced the phagocytosis of Aβ by macrophages of AD patients; also recorded: considerable activity
concentration that optimally stimulated phagocytosis ([3]; isolated and chemically synthesized material, compared with curcumin): 0.1 µM
